Laboratory results from patent US20250099407A1, “2-AMINO BENZOPHENONE DERIVATIVES FOR TARGETED FERROPTOSIS INDUCTION IN CANCER THERAPY” (INDIAN INSTITUTE OF TECHNOLOGY KANPUR, priority 2023, published 2025).

How the values were obtained:
Huh-7 cells = assay: Intracellular ROS, H2-DCFDA oxidation assay in Huh-7 cells; type: cell-based; settings: Huh-7, 37° C., 30 min; IITK3001 and IITK3002 20 μM, H2O2 100 μM
Method: We used fluorescence imaging-based oxidation of H2-DCFDA by ROS for assessing intracellular oxidative stress. Huh-7 cells were treated at 37° C. for 30 min with IITK3001 and IITK3002 (20 μM), H2O2 (100 μM), ^tertBuOOH (20 μM), NAC (0.5 mM) and 0.1% DMSO as control. Each experiment was conducted in more than two biological replicates with three technical replicates.
b. Effect of Thiols and Ferroptosis Modulators on the Hit Molecules' Antiproliferative Potency: Ferroptosis is directly controlled by the intracellular thiol concentrations in the form of cysteine and glutathione. Several oxidative mechanisms are well-wired in ferroptotic cell death and we set out to investigate the precise molecular mechanism of our lead molecules. Both cysteine and glutathione (GSH) are the enriched thiol-containing small molecule antioxidant system that are essential regulators of redox modulation in cells including ferroptosis. Further, the enzyme glutathione peroxidase 4 (GPX4) is well characterized to specifically quench the lipid peroxide equivalents in cells through the conversion of […] in cells thereby restoring the reduced environment in cells. Therefore, first, we assessed the ability of N-acetylcysteine (NAC) and GSH to suppress our lead molecules antiproliferative activity (FIG. 4a, b). We found a drastic reduction in the molecules' potency with IITK3001 (>1000-fold reduction) and IITK3002 (>500-fold reduction) (FIG. 14a, b). Supporting that, the addition of DL-Buthionine sulfoximine (BSO), an inhibitor of y-glutamylcysteine synthetase (glutathione biosynthesis) combination with our lead molecules potentiated the overall inhibitory capacity (FIG. 14a, b). […] Finally, we assessed the effect of Ferrostain-1 (Fer-1) and Liproxstatin-1 (Lip-1), antioxidants that function by trapping reactive radicals in cells, particularly lipid-peroxide radicals, and preventing the accumulation of lipid peroxides in cells. […] The accumulation of lipid peroxides and overall ROS was also detected using a fluorescence-based H2DCF-DA assay as depicted in FIG. 15. […]

A375 = assay: Cell viability, CellTiter-Glo assay, A375; type: cell-based; settings: Homo sapiens, A-375
Method: (§1) The viability of screened cancer cells was recorded using a luminescence-based CellTiter-Glo® assay for the ATP quantification. The screening concentration of the molecule ranged from 100/10 μM to 45/4.5 nM with an 8-point-3-fold dilution series in DMEM media (>0.1% DMSO as control). Each experiment was conducted in more than two biological replicates with three technical replicates. The error bar is a representation of standard deviation among the technical replicates.
as §1, with “IITK3002” for “the molecule”, “10” for “100/10”, “4.5” for “45/4.5”
a. […] In parallel, we have also synthesized the bromoacetamide (IITK3002) version of the lead molecules which is slightly more reactive with thiol nucleophiles when compared to chlorooacetamide warheads as depicted in FIG. 13. […] In addition, we also evaluated the molecules' antiproliferative potency against a panel of twelve different cancer phenotypes. […]

Row | EC50 (A375) | Compound | intracellular ROS, H2DCF-DA fluorescence intensity (Huh-7 cells)
1 | – | CN(C(=O)CBr)c1ccccc1C(=O)c1ccccc1 [IITK3002, N-(2-benzoylphenyl)-2-bromo-N-methylacetamide] | intracellular ROS generation
2 | 352 nM | CN(C(=O)CCl)c1ccccc1C(=O)c1ccccc1 [IITK3001, N-(2-benzoylphenyl)-2-chloro-N-methylacetamide] | intracellular ROS generation
